According to ChEMBL document CHEMBL1201862, “PubChem BioAssay data set” (2004):
Active and inactive are the calls of the source.

Experiments:
Aminopeptidase N = target: T1, Aminopeptidase N (Plasmodium falciparum FcB1/Columbia, UniProt O96935); experiment: P. falciparum M1AAP inhibitors, biochemical, fluorogenic H-Leu-NHMec substrate, 1536-well (AID 1445); set-up: species or system Plasmodium falciparum 3D7, 3D7
T1 sequence (O96935 whole entry): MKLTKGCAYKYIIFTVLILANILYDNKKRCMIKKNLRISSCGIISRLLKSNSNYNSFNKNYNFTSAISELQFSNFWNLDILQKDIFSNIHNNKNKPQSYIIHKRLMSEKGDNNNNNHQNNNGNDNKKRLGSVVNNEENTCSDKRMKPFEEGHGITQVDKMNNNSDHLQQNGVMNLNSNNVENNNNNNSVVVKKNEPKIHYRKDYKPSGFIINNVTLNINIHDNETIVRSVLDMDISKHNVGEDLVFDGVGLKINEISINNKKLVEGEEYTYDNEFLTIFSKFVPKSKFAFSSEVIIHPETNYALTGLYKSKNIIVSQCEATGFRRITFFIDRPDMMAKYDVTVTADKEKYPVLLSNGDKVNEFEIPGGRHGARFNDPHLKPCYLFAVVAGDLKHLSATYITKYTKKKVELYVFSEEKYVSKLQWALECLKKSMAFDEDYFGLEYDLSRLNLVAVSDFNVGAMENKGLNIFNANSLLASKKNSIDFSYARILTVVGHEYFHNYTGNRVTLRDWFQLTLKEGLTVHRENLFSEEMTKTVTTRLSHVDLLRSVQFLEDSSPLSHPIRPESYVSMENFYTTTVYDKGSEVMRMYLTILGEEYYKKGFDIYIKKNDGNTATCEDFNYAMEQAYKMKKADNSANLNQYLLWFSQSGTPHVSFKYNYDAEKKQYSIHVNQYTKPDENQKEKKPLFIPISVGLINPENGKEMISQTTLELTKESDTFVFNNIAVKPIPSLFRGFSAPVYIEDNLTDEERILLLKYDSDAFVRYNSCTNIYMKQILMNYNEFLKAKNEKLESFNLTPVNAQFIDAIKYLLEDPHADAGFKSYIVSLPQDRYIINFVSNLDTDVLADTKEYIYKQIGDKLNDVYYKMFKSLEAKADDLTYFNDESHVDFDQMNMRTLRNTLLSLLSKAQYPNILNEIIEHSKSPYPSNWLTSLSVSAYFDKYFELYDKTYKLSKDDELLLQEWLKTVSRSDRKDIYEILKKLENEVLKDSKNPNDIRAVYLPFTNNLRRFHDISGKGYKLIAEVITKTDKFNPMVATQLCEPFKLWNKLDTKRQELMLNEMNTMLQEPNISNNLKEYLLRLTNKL

[1] = test system: Streptococcus sp. 'group A'; experiment: growth inhibition of control SK(-) GAS strain, dose response, counter-screen for streptokinase expression inhibitor project, luminescence, kanamycin, BacTiterGlo, confirmation (AID 1900); assay type: functional, organism-based
Streptococcus = experiment: Group A Streptococcus viability loss, dose response, counter-screen for streptokinase expression inhibitor project, luminescence, BacTiterGlo (AID 1915); assay type: functional, organism-based;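 further: potency for reduction of bacterial viability or growth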
[2] = target: T2, Mannose-6-phosphate isomerase (Homo sapiens, UniProt P34949); experiment: human PMI inhibitors, high substrate, primary screen, biochemical, fluorescence intensity, high mannose 6-phosphate (AID 1220)
T2 sequence (P34949 whole entry): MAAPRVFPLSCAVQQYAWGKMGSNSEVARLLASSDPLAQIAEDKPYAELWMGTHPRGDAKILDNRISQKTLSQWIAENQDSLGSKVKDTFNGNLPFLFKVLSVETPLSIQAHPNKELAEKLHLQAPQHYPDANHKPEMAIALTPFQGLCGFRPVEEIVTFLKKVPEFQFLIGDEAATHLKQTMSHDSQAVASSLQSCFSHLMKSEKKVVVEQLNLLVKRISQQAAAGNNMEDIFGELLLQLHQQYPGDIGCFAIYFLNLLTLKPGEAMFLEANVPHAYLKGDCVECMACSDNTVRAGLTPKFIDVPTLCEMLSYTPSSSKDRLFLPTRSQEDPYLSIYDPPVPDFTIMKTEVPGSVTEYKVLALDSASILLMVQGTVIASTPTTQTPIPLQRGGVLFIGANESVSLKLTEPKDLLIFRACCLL

[3] = target: T3, Replicative DNA helicase DnaB (Mycobacterium tuberculosis, UniProt P9WMR3); experiment: DnaB intein splicing inhibitors, dose response, biochemical, cell-free fluorescence (AID 449749); assay type: functional
T3 sequence (P9WMR3 whole entry): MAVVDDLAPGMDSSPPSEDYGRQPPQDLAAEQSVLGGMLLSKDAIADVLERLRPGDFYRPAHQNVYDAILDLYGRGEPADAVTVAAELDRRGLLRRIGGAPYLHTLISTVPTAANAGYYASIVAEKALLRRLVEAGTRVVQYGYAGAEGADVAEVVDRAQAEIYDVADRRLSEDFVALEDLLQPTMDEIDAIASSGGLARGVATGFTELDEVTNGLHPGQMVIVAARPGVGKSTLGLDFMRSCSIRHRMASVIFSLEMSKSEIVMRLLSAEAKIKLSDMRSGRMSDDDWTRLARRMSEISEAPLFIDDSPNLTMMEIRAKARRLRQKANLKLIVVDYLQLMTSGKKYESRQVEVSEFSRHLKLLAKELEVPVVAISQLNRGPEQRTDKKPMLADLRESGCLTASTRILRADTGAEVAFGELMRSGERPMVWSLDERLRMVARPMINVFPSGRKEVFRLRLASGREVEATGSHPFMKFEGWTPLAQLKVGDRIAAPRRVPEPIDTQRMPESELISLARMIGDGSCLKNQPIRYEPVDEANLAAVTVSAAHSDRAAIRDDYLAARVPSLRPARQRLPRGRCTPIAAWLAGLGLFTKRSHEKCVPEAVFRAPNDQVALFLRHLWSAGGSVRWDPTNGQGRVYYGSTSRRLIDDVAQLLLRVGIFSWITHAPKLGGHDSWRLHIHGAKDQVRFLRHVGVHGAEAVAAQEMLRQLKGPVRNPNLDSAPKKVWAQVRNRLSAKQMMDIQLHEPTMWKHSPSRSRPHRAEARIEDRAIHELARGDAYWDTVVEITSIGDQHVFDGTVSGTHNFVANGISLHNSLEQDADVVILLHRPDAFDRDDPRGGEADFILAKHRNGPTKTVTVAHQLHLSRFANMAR

Protein RecA = target: T4, Protein RecA (Mycobacterium tuberculosis, UniProt P9WHJ3); experiment: Fluorescence Cell-Free Homogeneous Dose Retest to Identify Inhibitors of RecA-Intein Splicing Activity. [Related pubchem assays (depositor defined):AID2097, AID2223, AID489010, AID492950]; assay type: functional
T4 sequence (P9WHJ3 whole entry): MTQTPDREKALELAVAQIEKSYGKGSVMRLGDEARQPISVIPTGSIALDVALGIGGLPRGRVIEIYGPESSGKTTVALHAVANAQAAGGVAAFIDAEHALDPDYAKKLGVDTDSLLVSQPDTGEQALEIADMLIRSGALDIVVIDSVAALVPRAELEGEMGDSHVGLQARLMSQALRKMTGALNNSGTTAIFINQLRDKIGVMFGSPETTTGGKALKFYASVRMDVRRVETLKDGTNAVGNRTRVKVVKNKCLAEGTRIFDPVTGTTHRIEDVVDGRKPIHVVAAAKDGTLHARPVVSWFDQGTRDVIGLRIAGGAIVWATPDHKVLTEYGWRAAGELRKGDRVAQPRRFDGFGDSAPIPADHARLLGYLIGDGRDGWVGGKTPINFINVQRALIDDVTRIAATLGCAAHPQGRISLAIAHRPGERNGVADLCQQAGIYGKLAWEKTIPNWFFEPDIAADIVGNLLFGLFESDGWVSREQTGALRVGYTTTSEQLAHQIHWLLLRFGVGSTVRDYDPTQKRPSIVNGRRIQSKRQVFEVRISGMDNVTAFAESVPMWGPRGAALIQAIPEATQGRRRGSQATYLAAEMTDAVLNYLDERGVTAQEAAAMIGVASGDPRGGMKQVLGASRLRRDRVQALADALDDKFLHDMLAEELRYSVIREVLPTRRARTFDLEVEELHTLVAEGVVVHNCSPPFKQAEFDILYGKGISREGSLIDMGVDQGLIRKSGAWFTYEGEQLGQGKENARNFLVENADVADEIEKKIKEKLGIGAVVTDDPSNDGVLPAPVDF

[4] = Luminescence Cell-Based Dose Confirmation HTS to Identify Activators of 5'UTR Stem-Loop Driven Alpha-Synuclein mRNA Translation in H4 Neuroglioblastoma Cells. [Related pubchem assays: 1829 (Project Summary), 1814 (Primary HTS)]; assay type: functional
[5] = Luminescence Cell-Based Dose Response HTS to Identify Activators of Luciferase Translation or Activity in H4 […] Cells. [Related pubchem assays: 1829 (Project Summary), 1814 (Primary HTS)]; assay type: functional
H4 = experiment: Luminescence Cell-Based Dose Response HTS to Identify Activators of 5'UTR Stem-Loop Driven Prion Protein mRNA Translation in H4 Neuroglioblastoma Cells. [Related pubchem assays: 1829 (Project Summary), 1814 (Primary HTS)]; assay type: functional; settings: Homo sapiens
Leucine aminopeptidase = target: T5, Leucine aminopeptidase (Plasmodium falciparum 3D7, UniProt Q8IL11); experiment: P. falciparum M17LAP inhibitors, primary screen, biochemical, fluorogenic H-Leu-NHMec substrate, 1536-well (AID 1619); assay type: functional
T5 sequence (Q8IL11 whole entry): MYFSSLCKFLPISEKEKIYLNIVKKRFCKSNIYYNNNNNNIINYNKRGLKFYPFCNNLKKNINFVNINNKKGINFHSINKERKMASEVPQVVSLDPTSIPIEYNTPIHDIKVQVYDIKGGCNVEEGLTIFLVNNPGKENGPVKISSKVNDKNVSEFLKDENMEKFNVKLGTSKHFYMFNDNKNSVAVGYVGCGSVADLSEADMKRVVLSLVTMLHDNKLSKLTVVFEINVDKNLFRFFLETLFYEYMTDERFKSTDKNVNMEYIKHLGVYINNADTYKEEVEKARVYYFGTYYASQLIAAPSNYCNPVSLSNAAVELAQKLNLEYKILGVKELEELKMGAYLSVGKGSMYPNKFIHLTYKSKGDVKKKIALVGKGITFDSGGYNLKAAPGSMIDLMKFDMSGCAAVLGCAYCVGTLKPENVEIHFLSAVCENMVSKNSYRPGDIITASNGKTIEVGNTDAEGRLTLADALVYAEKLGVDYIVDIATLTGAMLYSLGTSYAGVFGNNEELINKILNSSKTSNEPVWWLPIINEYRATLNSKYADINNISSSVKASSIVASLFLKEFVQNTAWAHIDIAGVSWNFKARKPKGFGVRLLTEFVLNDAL

Estrogen receptor beta [6] = target: T6, Estrogen receptor beta (Homo sapiens, UniProt Q92731);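 further: recombinant ER-beta bound to coactivator SRC1 peptide in presence of estradiol agonist; inhibitors block coactivator peptide binding and lower the FRET signal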
T6 sequence (Q92731 whole entry): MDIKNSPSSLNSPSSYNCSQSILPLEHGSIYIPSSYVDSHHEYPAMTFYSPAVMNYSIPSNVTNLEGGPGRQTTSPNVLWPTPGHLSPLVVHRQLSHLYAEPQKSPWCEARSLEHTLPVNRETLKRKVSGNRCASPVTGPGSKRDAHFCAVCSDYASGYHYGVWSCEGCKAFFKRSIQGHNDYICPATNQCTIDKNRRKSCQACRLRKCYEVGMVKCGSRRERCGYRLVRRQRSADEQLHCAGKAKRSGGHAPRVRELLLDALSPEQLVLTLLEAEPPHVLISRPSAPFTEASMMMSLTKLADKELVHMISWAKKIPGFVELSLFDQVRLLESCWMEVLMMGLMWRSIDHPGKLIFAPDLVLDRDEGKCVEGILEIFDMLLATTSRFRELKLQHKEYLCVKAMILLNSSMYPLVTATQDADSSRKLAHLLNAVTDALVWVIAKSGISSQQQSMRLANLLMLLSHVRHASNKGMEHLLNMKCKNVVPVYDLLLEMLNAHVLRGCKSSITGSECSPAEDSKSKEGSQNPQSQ

Estrogen receptor beta [7] = target: T6, Estrogen receptor beta; experiment: ERβ–SRC-3 coactivator interaction inhibitors, confirmation, orthogonal assay, biochemical, ELISA, streptavidin-HRP readout (AID 1060)
[8] = cytotoxicity in HEK-293T cells, dose response, cytotoxicity control for BCR NF-kB inhibitor project, luminescence, B-cell screen hits (AID 489021); assay type: functional, cell-based;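 further: HEK-293T cells carrying an NF-kB luciferase reporter; cells exposed to compound for about 14 hours before viability readout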
Beta-galactosidase = Beta-galactosidase (Escherichia coli, UniProt Q8VNN2); experiment: Dose response counterscreen for EBI2 assay utilizing the enzyme, b-galactosidase.; assay type: functional
Sequence of Beta-galactosidase (Q8VNN2 whole entry): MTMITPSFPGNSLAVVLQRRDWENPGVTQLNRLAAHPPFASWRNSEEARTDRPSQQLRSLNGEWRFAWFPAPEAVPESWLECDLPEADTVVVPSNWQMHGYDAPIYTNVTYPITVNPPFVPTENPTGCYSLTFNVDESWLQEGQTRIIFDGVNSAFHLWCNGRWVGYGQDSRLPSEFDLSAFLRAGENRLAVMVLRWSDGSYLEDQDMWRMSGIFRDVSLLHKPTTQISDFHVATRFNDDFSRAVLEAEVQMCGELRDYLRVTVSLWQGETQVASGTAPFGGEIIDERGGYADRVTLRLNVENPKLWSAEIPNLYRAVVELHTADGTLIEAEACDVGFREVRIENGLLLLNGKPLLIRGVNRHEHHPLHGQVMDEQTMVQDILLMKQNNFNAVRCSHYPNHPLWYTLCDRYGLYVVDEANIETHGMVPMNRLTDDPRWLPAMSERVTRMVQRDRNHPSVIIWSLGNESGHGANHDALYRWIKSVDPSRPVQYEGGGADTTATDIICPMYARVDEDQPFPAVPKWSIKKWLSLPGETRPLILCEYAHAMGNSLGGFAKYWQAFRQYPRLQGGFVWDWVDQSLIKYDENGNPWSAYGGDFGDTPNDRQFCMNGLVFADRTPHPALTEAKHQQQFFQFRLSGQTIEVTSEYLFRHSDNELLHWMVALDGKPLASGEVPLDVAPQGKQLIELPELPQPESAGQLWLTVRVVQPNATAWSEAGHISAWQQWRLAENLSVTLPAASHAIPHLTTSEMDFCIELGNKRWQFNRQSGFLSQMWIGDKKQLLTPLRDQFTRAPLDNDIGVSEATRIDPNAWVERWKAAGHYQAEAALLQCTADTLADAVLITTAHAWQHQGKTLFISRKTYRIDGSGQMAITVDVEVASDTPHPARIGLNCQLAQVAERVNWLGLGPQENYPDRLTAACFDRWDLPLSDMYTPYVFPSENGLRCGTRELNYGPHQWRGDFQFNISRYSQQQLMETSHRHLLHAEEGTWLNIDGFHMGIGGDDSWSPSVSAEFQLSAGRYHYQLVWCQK

[9] = target: T7, Polyadenylate-binding protein 1 (Homo sapiens, UniProt P11940); experiment: PABP1 MLLE–PAM2 interaction inhibitors, dose response, miRNA deadenylation inhibitor project, biochemical, fluorescence polarization, Cy5-PAM2 peptide, secondary (AID 602260); assay type: functional; settings: read-out: IC50_Mean
T7 sequence (P11940 whole entry): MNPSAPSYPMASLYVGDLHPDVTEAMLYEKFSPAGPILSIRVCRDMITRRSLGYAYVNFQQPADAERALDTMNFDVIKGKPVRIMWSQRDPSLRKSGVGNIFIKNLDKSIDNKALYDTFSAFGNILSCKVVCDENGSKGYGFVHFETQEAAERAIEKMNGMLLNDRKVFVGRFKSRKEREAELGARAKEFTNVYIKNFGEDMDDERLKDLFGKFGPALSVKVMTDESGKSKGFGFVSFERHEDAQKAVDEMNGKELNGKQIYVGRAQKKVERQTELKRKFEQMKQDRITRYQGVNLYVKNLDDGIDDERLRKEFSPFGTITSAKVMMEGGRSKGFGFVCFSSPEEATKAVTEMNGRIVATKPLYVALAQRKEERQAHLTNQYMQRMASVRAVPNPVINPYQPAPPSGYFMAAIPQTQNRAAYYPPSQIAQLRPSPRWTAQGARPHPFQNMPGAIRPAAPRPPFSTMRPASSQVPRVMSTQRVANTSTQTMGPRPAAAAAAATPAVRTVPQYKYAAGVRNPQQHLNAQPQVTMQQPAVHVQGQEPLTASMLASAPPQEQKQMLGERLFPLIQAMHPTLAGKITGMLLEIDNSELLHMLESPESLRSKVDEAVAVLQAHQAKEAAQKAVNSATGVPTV

[10] = target: T7, Polyadenylate-binding protein 1; experiment: PABP1 MLLE–PAM2 binding inhibitor potency, dose response, biochemical, fluorescence polarization, FITC-PAM2 peptide (AID 602259); assay type: functional; settings: read-out: IC50_Mean
[11] = inhibitors of HIV Env-driven cell fusion, dose response, cherry-pick (AID 652057); assay type: functional, cell-based
[12] = ZM109 Env clade C HIV-1 fusion inhibitors, dose response, HeLa effector, CEM target cells, luciferase, cherry-pick (AID 652058); assay type: functional, cell-based
[13] = inhibitors of clade B AD8 Env fusion, dose response, cell-based, cherry-pick (AID 652062); assay type: functional;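 further: luciferase signal from cell-cell fusion driven by HIV-1 clade B AD8 Env; potency is for inhibitors of fusion seen as a drop in luminescence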
Vero = Vero cell cytotoxicity, cytotoxicity control for flavivirus capping enzyme inhibitors (AID 588742); assay type: functional; settings: Chlorocebus sabaeus

CCC(=O)N1NC(=C2C(=O)N(C)C(=O)N(C)C2=O)CC1c1ccccc1 (stereo unspecified)
IC50 (Aminopeptidase N): 41.9 µM (active) | EC50 [1]: 4.93 µM (active) | EC50 (Streptococcus): 8.9 µM (active)

COc1ccc2ccc3c(c2c1)N=CC1(O3)N(C)c2ccccc2C1(C)C (stereo unspecified)
IC50 [2]: > 50 µM (not active) | AC50 [3]: 2.96 µM (active) | EC50 (Protein RecA): 36.2 µM (active)

N#Cc1nc(/C=C/c2ccccc2)oc1NCCCN1CCOCC1
IC50 (Aminopeptidase N): 39.2 µM (active) | EC50 [4]: 22.1 µM (active) | EC50 [5]: 7.23 µM (active) | EC50 (H4): 38 µM (active)

COc1cccc(-c2[nH]nc3c2C(c2ccoc2)C(C#N)=C(N)O3)c1 (stereo unspecified)
IC50 (Leucine aminopeptidase): 76.8 µM (active) | IC50 (Estrogen receptor beta [6]): 20 µM (active) | IC50 (Estrogen receptor beta [7]): > 50 µM (not active) | AC50 [3]: 8.72 µM (active) | EC50 (Protein RecA): 1.07 µM (active)

Cc1ccc(-c2nsc3c(N4CCC(C(N)=O)CC4)ncnc23)cc1
IC50 [8]: > 80 µM (inactive)

CCOC(=O)c1c(-c2cccs2)csc1N
IC50 [2]: > 50 µM (not active)

Nc1ccc2c(c1)OC1(CCCCC1)O2
IC50 [2]: > 50 µM (not active)

CCCc1nn(-c2ccccc2)c2c1C(c1cccs1)C(C#N)=C(N)O2 (stereo unspecified)
AC50 [3]: 12.6 µM (active) | EC50 (Protein RecA): 3.58 µM (active) | IC50 (Beta-galactosidase): > 80 µM (inactive)

CCOC(=O)COc1ccc2c(C#N)c3ccccn3c2c1
IC50 [2]: > 50 µM (not active) | IC50 [9]: > 66 µM (inactive) | IC50 [10]: > 66 µM (inactive)

NC(=O)c1ccsc1NC(=O)COC(=O)Cc1ccsc1
IC50 (Estrogen receptor beta [6]): 5.55 µM (active) | IC50 (Estrogen receptor beta [7]): 1.84 µM (not active)

Cc1ccc(S(=O)(=O)N(C)C[C@@H]2Oc3cc(Br)ccc3S(=O)(=O)N([C@H](C)CO)C[C@@H]2C)cc1
AC50 [11]: 4.58 µM (active) | AC50 [12]: 7.1 µM (active) | AC50 [13]: 26.6 µM (active)

COc1cc(/C=N/NC(=O)c2cc3ccccc3cc2O)ccc1OCCN1CCCCC1
IC50 [2]: > 50 µM (not active) | CC50 (Vero): > 40 µM (active)
